According to ChEMBL document CHEMBL1649466, “High-throughput screening identifies novel inhibitors of the acetyltransferase activity of Escherichia coli GlmU” (Antimicrob Agents Chemother, 2009):

What was measured:
[1] = target: Bifunctional protein GlmU (Escherichia coli (strain K12)) (UniProt P0ACC7); test: Competitive inhibition of Acetyltransferase activity of Escherichia coli BL21(DE3) GlmU in presence of AcCoA
[2] = target: Bifunctional protein GlmU (Escherichia coli (strain K12)) (UniProt P0ACC7); test: Uncompetitive inhibition of Acetyltransferase activity of Escherichia coli BL21(DE3) GlmU in presence of GlcN-1P
[3] = target: Bifunctional protein GlmU (Escherichia coli (strain K12)) (UniProt P0ACC7); test: Uncompetitive inhibition of Acetyltransferase activity of Escherichia coli BL21(DE3) GlmU in presence of AcCoA

Bifunctional protein GlmU (Escherichia coli (strain K12)), sequence (P0ACC7 whole entry, looked up): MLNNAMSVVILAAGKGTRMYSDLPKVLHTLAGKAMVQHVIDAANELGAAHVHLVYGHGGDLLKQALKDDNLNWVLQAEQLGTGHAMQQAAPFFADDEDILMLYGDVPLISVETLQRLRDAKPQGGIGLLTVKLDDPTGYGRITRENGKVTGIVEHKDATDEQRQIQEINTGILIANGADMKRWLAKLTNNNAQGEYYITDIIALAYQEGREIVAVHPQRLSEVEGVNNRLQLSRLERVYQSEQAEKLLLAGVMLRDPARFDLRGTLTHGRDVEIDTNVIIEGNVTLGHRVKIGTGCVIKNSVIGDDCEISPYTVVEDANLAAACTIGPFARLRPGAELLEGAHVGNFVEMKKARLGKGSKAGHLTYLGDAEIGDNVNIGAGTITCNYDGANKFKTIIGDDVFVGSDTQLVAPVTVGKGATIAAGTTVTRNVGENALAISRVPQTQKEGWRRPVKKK

| Kic [1] [nM] | Kiuc [2] | Kiuc [3] [nM] | Structure (SMILES) |
| --- | --- | --- | --- |
| 404 | 1.11 ×10³ nM |  | O=S(=O)(Nc1ccc(S(=O)(=O)c2ccc(-c3ccc(S(=O)(=O)c4ccc(NS(=O)(=O)c5ccc(Cl)cc5)c(Cl)c4)cc3)cc2)cc1Cl)c1ccc(Cl)cc1 |
| 17.2 | 189 nM |  | Nc1ccc(Nc2ccc(N)cc2S(=O)(=O)O)cc1 |
| 22.8 |  | 101 | O=C(CSc1nnc(SCC(=O)NCCSCc2ccco2)s1)NCCSCc1ccco1 |
